Earlier results on one compound are cited in US6441041B1, “(-)-hydroxycitric acid for the prevention of osteoporosis” (priority 2001, dated 2002).

The subject of series [1] is female Zucker lean (Fa/−) rats. Conditions: lean animals.
The subject of series [2] is female Zucker obese (Fa/fa) rats. Conditions: obese animals.

Take `O=C([O-])CC(O)(C(=O)[O-])C(O)C(=O)[O-].[Na+].[Na+].[Na+]` (stereo not drawn) [Tri-NaHCA, trisodium (−)-hydroxycitrate]: the “Carcass protein and ash/mineral content in comparison with control” value was “increased carcass protein and ash/mineral content” in series [1]; “increased carcass protein and ash/mineral content” in series [2].
